We go through eight molecules from ChEMBL document CHEMBL4627380, “Phaeosphaones: Tyrosinase Inhibitory Thiodiketopiperazines from an Endophytic Phaeosphaeria fuckelii” (J Nat Prod, 2020).

For one experiment, the species on record is Homo sapiens. The experiment can be described thus: Inhibition of alpha-glucosidase (unknown origin) at 100 uM.
For the next experiment, the target named is Mushroom tyrosinase (Agaricus bisporus, UniProt O42713+Q00024+C7FF04+C7FF05). Description: Inhibition of mushroom tyrosinase using L-Dopa as substrate preincubated for 10 mins followed by substrate addition and measured after 5 mins.

Structures are written as SMILES. Active and inactive are the calls of the source. The rule behind the calls is not given here.

For the molecule `CS[C@H](c1c[nH]c2ccccc12)[C@]1(O)NC(=O)[C@@](SC)(C(C)C)N(C)C1=O`, in the experiment filed under Homo sapiens, the inhibition entry is “inactive”.

For the molecule `CO[C@]1([C@H](SC)c2c[nH]c3ccccc23)NC(=O)[C@@](SC)(C(C)C)N(C)C1=O`, the inhibition result in the experiment listed under Homo sapiens was “inactive”.

In the case of `CC(C)[C@@]12SS[C@]3(C(=O)N1C)[C@@H](O)[C@]1(c4c[nH]c5ccccc45)c4ccccc4N[C@@H]1N3C2=O`, the inhibition result in the experiment listed under Homo sapiens was “inactive”. Moreover, the IC50 – broadly, the point on the concentration scale where inhibition reaches its midpoint – at Mushroom tyrosinase turned out to be 28.4 µM.

For `CS[C@]1(Cc2c[nH]c3ccccc23)NC(=O)[C@@](SC)(C(C)C)NC1=O`, the inhibition entry in the experiment filed under Homo sapiens was “inactive”.

For `CS[C@]1(Cc2c[nH]c3ccccc23)NC(=O)[C@](CO)(SC)N(C)C1=O` [CHETOSEMINUDIN B], in the experiment listed under Homo sapiens, the inhibition result is “inactive”. In addition, on Mushroom tyrosinase, the IC50 was found to be 31.7 µM.

For `CC(C)[C@]12SS[C@]([C@@H](O)c3c[nH]c4ccccc34)(CC1=O)C(=O)N2C`, the inhibition entry in the experiment filed under Homo sapiens is “inactive”.

As for `CO[C@@]1([C@H](SC)c2c[nH]c3ccccc23)NC(=O)[C@@](SC)(C(C)C)N(C)C1=O`, in the experiment filed under Homo sapiens, the inhibition result was “inactive”. The same molecule yielded an IC50 against Mushroom tyrosinase of 33.2 µM.

In the case of `CC(C)[C@@H]1NC(=O)[C@@H]2C[C@@]3(O)c4ccccc4N[C@H]3N2C1=O`, the inhibition result in the experiment filed under Homo sapiens was “inactive”.
